# Results as given in a melting point compilation (Tetko et al.; mined from patent text by program, amines drawn as free bases though some values may be those of a salt).
row,SMILES,melting point
1,CCOC(=O)C1=C(C)NC(C=O)=C(C(=O)OCC)C1c1cccc([N+](=O)[O-])c1 (configuration not stated),130 to 133 °C
2,O=C1N=c2cccc(OCCN3CCC(Cc4ccccc4)CC3)c2=N1,153 to 154 °C
3,CCc1cc(C(=O)c2ccccc2Cl)c(-n2c(C)nnc2CNC(=O)c2cc3ccccc3n2CCC(=O)OC)s1,67 to 68 °C
4,CN1C(=O)N(c2ccccc2)C(=O)C1=NC(Cl)C(Cl)(Cl)Cl (configuration not stated),158 to 160 °C
5,COC(=O)C(C)(C)Cc1ccc(-c2ccc(CC(C)(C)C(=O)OC)cc2)cc1,68 to 70 °C
6,CC(C)[C@H](NC(=O)N(C)Cc1nc2ccccc2[nH]1)C(=O)N[C@@H](Cc1ccccc1)C[C@H](O)[C@H](Cc1ccccc1)NC(=O)OCc1cccnc1,97 to 100 °C
7,COc1cc(C=O)nnc1OC,179 to 181 °C
8,O=C(Nc1ccc(-n2nc(C(F)(F)F)cc2C2CC2)cc1)c1c(F)cccc1F,188 to 191 °C
9,CCn1c(Oc2cccc(NC(N)=O)c2)nnc1[C@@H](C)NS(=O)(=O)c1ccc(Cl)c(Cl)c1,137 to 138 °C
10,CCCN(CCC)C(=O)c1cc(C(=O)N[C@@H](Cc2cc(F)cc(F)c2)[C@H](O)CNCc2cccc(CC)c2)cc(-c2ncco2)c1,65 to 67 °C
11,O=C(Nc1ccc(I)cc1)N[C@H]1C[C@H](C(=O)O)Nc2cc(Cl)cc(Cl)c21 (relative stereo),224 to 226 °C
12,O=C(O)c1cc(=O)c(-c2ccc(OCc3ccccc3)c(OCc3ccccc3)c2)co1,206 to 208 °C
13,CCCCCCCNC(=O)N(C)c1cccc(-c2ccc(C=C(C)C(=O)O)cc2OCCCC)c1,70 to 72 °C
14,CC(=O)N(c1cccc(Oc2ccccc2)c1)C(C)C(=O)O (configuration not stated),145 to 146 °C
15,COC(=O)c1cc(C(=O)N[C@@H](Cc2ccccc2)[C@H]2CN(C3(c4cccc(C(F)(F)F)c4)CC3)C(=O)O2)n2c1CN(S(C)(=O)=O)CC2,104 °C
16,Cn1c2c(c3cc(C#N)ccc31)C(=O)CCC2,190 to 192 °C
17,O=C(Nc1ccccc1)c1ccc(F)c([N+](=O)[O-])c1,155 to 157 °C
18,CCCCCCCC1(CCCCCCC)c2cc(Br)ccc2-c2ccc(Br)cc21,45 to 46 °C
19,CCOCn1c(C(=O)c2ccccc2)c(CC)c(=O)[nH]c1=O,133 to 134 °C
20,Cc1cccc(C(=O)c2ccc(Cl)cc2)c1O,55 to 58 °C
21,COC(=O)CCCCC(=O)c1cccc(F)c1O,59 to 60 °C
22,CCOC(=O)C1=C(C)NC(CO)=C(C(=O)OCC)C1c1ccccc1OC (configuration not stated),125 to 126 °C
23,COc1cc(OC)c2c(=O)n(CCCN3CCCC3)c(-c3cc(C)c(OCCCN4CCCC4)c(C)c3)nc2c1,109 to 111 °C
24,O=C(CN1CCN(c2ccncc2)CC1)c1ccc(CC(O)=S)cc1,240 to 244 °C

row,SMILES,melting point
1,O=C(O)COc1cccc2c1CCc1sc(OCCC(c3ccccc3)c3ccccc3)nc1-2,165 to 166 °C
2,Oc1ccc(C(c2ccc(O)cc2)(c2ccc(I)cc2)C(F)(F)F)cc1,187 to 189 °C
3,COc1cc(OCCCN2CCc3cc(OC)c(OC)cc3C2)ccc1NC(=O)c1cccc2c(=O)c3cccc(C)c3[nH]c12,183 to 184 °C
4,CC1CC(=O)NN=C1c1ccc(N2CCN(CCCCN)CC2)c([N+](=O)[O-])c1 (configuration not stated),145 to 146 °C
5,C=C1C(=C)C2OC1c1cc3cccc(OC)c3cc12 (configuration not stated),154 to 155 °C
6,COc1ccc(NC(=O)c2cc(OC)c(OC)c(OC)c2)cc1,160 to 161 °C
7,CC1(C)C2CCC1(CS(=O)(=O)N1CCC3(C=Cc4ccccc43)CC1)C(O)(CC(=O)O)C2 (configuration not stated),138 to 140 °C
8,CS(=O)(=O)CCOC(=O)NCCSc1ccc2nccn2n1,91 to 93 °C
9,CCN1C[C@@H](O)[C@H](Oc2ccc(C(C)=O)cc2OC)C1 (relative stereo),121 to 123 °C
10,C[C@H]1C[C@H](OC(=O)C(C)(C)Oc2ccc(-c3ccccc3)cc2)CC(C)(C)C1 (relative stereo),96 °C
11,CCCOC(Cc1ccc(OCCc2nc(-c3ccccc3)oc2C)c2ccccc12)C(=O)O (configuration not stated),103 to 105 °C
12,CC(=O)Nc1ccc(S(=O)(=O)N2CCN(C)CC2)cc1,184 °C
13,CC(C)(C)P1(=S)CCC1,120 to 121 °C
14,COc1cccc2c(O)c(C(=O)NCCCCN3CCN(C(c4ccccc4)c4ccccc4)CC3)cnc12,209 to 212 °C
15,COc1ccc2nc3ccc(C(=O)O)cn3c(=O)c2c1,278 to 290 °C
16,CCOC(=O)C1CCc2c(c(C)nn2C)C1=O (configuration not stated),76.5 to 79 °C
17,Nc1nc2ccc(NC(=O)[C@@H]3CCCN3C(=O)[C@@H](Cc3ccccc3)NS(=O)(=O)Cc3ccccc3)cc2s1,130 to 133 °C
18,N#CC1CC(C#N)(c2ccc(OC(F)F)c(OCC3CC3)c2)CCC1=O (configuration not stated),142 to 143 °C
19,CCCCCC(OC(C)=O)c1ccccc1COc1cccc2ccc(=O)[nH]c12 (configuration not stated),92 to 95 °C
20,O=C(CC(=O)c1cc(O)ccc1O)c1ccc(OCc2ccccc2)c(OCc2ccccc2)c1,196 to 197 °C
21,N#CC1(c2ccc(F)cc2)C2CC3CC(C2)CC1C3 (configuration not stated),81 to 82 °C
22,COC(=O)c1cc(CCC2CNc3nc(NC(=O)C(C)(C)C)nc(O)c3C2)cn1[Si](C(C)C)(C(C)C)C(C)C (configuration not stated),202 to 204 °C
23,C=CCOc1cnc(SC)nc1,41 to 42 °C
